Source: US12521419B2, “Use of anti-aging glycopeptides to enhance pancreatic cell health, survival and improve transplant outcome” (Protokinetix Inc., priority 2014, dated 2026)

Columns and labels:
human islets [1] = experiment: Intra-islet calcium concentration; type: cell-based; settings: Tac−, Tac+AAGP groups
Description: Various electrophysiology studies were performed on human islets to elucidate a potential mechanism of action for the AAGP™ by characterizing the CNI-related injury and its avoidance.

human islets [2] = experiment: Viability by fluorescent membrane integrity assay (syto green/ethidium bromide); type: cell-based; settings: 24 h ± AAGP then 24 hr tacrolimus 10 ng/mL
Description: After 24 hr of culture, islets are assessed for recovery, viability and function. Recovery rate is calculated as the percentage of surviving islets after 24 hr culture in comparison to the initial count for each condition. Viability is assessed using a fluorescent membrane integrity assay with counter-stains syto green/ethidium bromide (Cedarlane Laboratories, Burlington, ON, and Sigma-Aldrich, ON) (Islet isolation for clinical transplantation. In: Shahidul. M, (ed). The islets of Langerhans. New York: Springer, 2010; Ranuncoli A, et al. Cell transplantation 2000; 9(3):409-414; Ricordi C. et al. Acta diabetologica latina 1990; 27(3):185-195; and Barnett M J et al. Cell transplantation 2004; 13(5):481-488).

[3] = system: human islets transplanted under the kidney capsule; experiment: Long-term graft function of minimal mass human islet transplant (blood glucose, IPGTT, graft insulin content); type: in vivo, immunodeficient mice
From the text: Eight to 12 week immunodeficient mice (B6.129S7-Rag1^tm1Mom) are obtained from the Jackson Laboratory (Bar Harbor, ME, USA) and housed under specific pathogen-free conditions with access to food and water ad libitum. Animals are cared for according to the guidelines of the Canadian Council on Animal Care, and ethical approval is obtained from the animal welfare committee at the University of Alberta.
Animals are considered diabetic after two consecutive blood glucose measurements are documented≥18 mmol/L.
Ten animals per group received approximately 1,000 IEQ human islets transplanted under the capsule of the left kidney as described previously (19).
Non-fasting blood glucose is monitored in the remaining 7 mice per group three times a week using a portable glucometer (OneTouch Ultra 2, LifeScan, Canada) over 60 days. Normoglycemia is defined when two consecutive readings are below 11.3 mmol/L.
Intraperitoneal Glucose-Tolerance Tests (IPGTT) are conducted 60 days post-transplant to evaluate the capacity of islets to respond to a glucose bolus (3 g/kg) after overnight fast. Blood glucose levels are monitored at baseline (Time 0, 15, 30, 60, 90 and 120 minutes post-injection). All results are compared to blood glucose profiles of naive control mice.
Non-fasting blood glucose levels are recorded for 1 week following nephrectomy. Likewise, the native pancreas is excised at the terminal endpoint, fixed in 10% formalin and analyzed with immunohistochemistry to confirm absence of mouse insulin staining, thus, eliminating residual or regeneration of native pancreatic beta cell function.
Preserved grafts are then processed as previously described and residual insulin content is determined using human insulin ELISA as a measure of surviving islets.

human islets [4] = experiment: Static GSIS assay (stimulation index); type: cell-based; settings: day 3, tacrolimus present
From the text: Similar experimental conditions were recreated (human islets cultured with and without AAGP™ and exposed to tacrolimus) and aliquots of approximately 100 IEQ were collected on day 3 for each corresponding group to undergo s-GSIS assay and simultaneous intracellular insulin content. Islets were then extensively washed to remove tacrolimus and left in culture for 4 more days, when sampling and comparative testing was repeated on day 7.

human islets [5] = experiment: Glucose-stimulated insulin secretion (GSIS) perifusion assay; type: cell-based; settings: 24 h ± AAGP then 24 hr tacrolimus 10 ng/mL; Tac− 158.8
Description: Islet secretory function is assessed by monitoring in vitro insulin secretory profile during continuous glucose stimulation, as described by Cabrera et al Cell transplantation 2008;16(10):1039-1048. This in vitro perifusion assay is a modality of continuous Glucose-Stimulated Insulin Secretion (GSIS) test to stress islets in alternating normoglycemic and hyperglycemic environment to model physiological islet response. Supernatants from the perifusion assay are collected and insulin levels are determined using a commercially available ELISA kit (Insulin ELISA kit. Mercodia Inc. Pittsburgh, PA, USA). Results are expressed as fold-change of insulin secretion compared to the low (2.8 mMol) glucose stimulation baseline, normalized for 100 IEQ.

C=CC[C@@H]1/C=C(\C)C[C@H](C)C[C@H](OC)[C@H]2O[C@@](O)(C(=O)C(=O)N3CCCC[C@H]3C(=O)O[C@H](/C(C)=C/[C@@H]3CC[C@@H](O)[C@H](OC)C3)[C@H](C)[C@@H](O)CC1=O)[C@H](C)C[C@@H]2OC.O [Tac+, tacrolimus]
calcium concentration in islets (human islets [1]): neither tacrolimus nor AAGP™ affected the calcium concentration
cell viability by membrane integrity stain (human islets [2]): no difference in cell viability
IPGTT AUC ([3]; 60 days post-transplant, glucose bolus 3 g/kg, Tac− 92.63, naïve 71.43): 149.8
insulin content of recovered graft ([3]; after 60 days of transplant): 30.86 ng/mL
blood glucose over 60 days post-transplant ([3]; marginal islet mass model, n=7 per group): all mice remained hyperglycemic
stimulation index (s-GSIS) (human islets [4]): 1.4
GSIS perifusion AUC (human islets [5]): 8.22
